Data published in ChEMBL document CHEMBL1201862, “PubChem BioAssay data set” (2004).
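Cells were grown in 96-well plates and exposed to each compound for 48 hours at five concentrations; endpoints were interpolated linearly between bracketing concentrations, or set to the highest concentration if not reached. Here, GI50 denotes the concentration required for 50% inhibition of growth.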 Activity calls are given as the source filed them. Rule as the data show it: active = GI50 up to about 1.1 µM and inactive = higher.

Columns and labels:
Assay in all cases: inhibition of tumour cell growth, NCI panel, 48 h
COLO 205 = system: COLO 205
IGROV-1 = system: IGROV-1
KM12 = system: KM12
PC-3 = system: PC-3
HCT-116 = system: HCT-116
SW-620 = system: SW-620
K562 = system: K562
SK-OV-3 = system: SK-OV-3
TK-10 = system: TK-10
BT-549 = system: BT-549
Hs-578T = system: Hs-578T
ACHN = system: ACHN
OVCAR-4 = system: OVCAR-4
SF-268 = system: SF-268
Malme-3M = system: Malme-3M
OVCAR-5 = system: OVCAR-5
HOP-92 = system: HOP-92
HL-60 = system: HL-60
SR = system: SR

Measured: GI50

CC(Nc1ccc(Cl)c(Cl)c1)c1ccncc1 (configuration not stated)
inactive: COLO 205 16.5 µM | IGROV-1 25.4 µM | KM12 14.9 µM | PC-3 19.4 µM | HCT-116 16.6 µM | SW-620 20.7 µM | K562 45.3 µM | SK-OV-3 11.4 µM | TK-10 31.9 µM | BT-549 26.1 µM | Hs-578T > 10 µM | ACHN 19.1 µM | OVCAR-4 58.2 µM | SF-268 44 µM | Malme-3M 34.3 µM | OVCAR-5 > 10 µM | HOP-92 18.9 µM

C/C(=N/NC(N)=S)c1ccc[nH]1
inactive: COLO 205 > 100 µM | IGROV-1 > 100 µM | HL-60 > 100 µM | KM12 > 100 µM | PC-3 > 100 µM | HCT-116 > 100 µM | SW-620 > 100 µM | K562 37.9 µM | SK-OV-3 > 100 µM | TK-10 > 100 µM | BT-549 > 100 µM | Hs-578T > 100 µM | ACHN > 100 µM | OVCAR-4 78.9 µM | SF-268 > 100 µM | Malme-3M > 100 µM | OVCAR-5 > 100 µM | HOP-92 > 100 µM

CCOC(=O)c1nc2ccccc2nc1Nc1ccc(OC)c(OC)c1
inactive: COLO 205 > 100 µM | IGROV-1 > 100 µM | HL-60 > 100 µM | KM12 > 100 µM | HCT-116 > 100 µM | K562 > 100 µM | SK-OV-3 > 100 µM | TK-10 > 10 µM | BT-549 > 100 µM | SR > 100 µM | Hs-578T 37.7 µM | ACHN > 100 µM | OVCAR-4 > 100 µM | SF-268 27.3 µM | Malme-3M > 100 µM | OVCAR-5 > 100 µM | HOP-92 62.7 µM

NCCNC(=S)S
inactive: COLO 205 > 100 µM | IGROV-1 > 100 µM | HL-60 44.7 µM | KM12 > 100 µM | PC-3 > 100 µM | HCT-116 > 100 µM | SW-620 59.2 µM | K562 36.6 µM | SK-OV-3 > 100 µM | TK-10 > 100 µM | BT-549 > 100 µM | Hs-578T 7.31 µM | ACHN > 100 µM | OVCAR-4 > 100 µM | SF-268 4.9 µM | Malme-3M 11.9 µM | OVCAR-5 > 100 µM

O=C(/C=C/c1ccc(O)cc1)c1cc(O)cc(O)c1
inactive: COLO 205 18 µM | IGROV-1 13.7 µM | HL-60 1.92 µM | PC-3 11.1 µM | HCT-116 13.2 µM | K562 2.68 µM | SK-OV-3 18.2 µM | TK-10 24.4 µM | BT-549 14.3 µM | Hs-578T 29.9 µM | ACHN 6.79 µM | OVCAR-4 20.6 µM | SF-268 19.8 µM | Malme-3M 20.4 µM | OVCAR-5 13.8 µM | HOP-92 14.3 µM

Cc1nn(C(=O)Cc2ccccc2)c2c1C(c1ccc(/C=C/c3ccccc3)cc1)SC(=N)N2 (configuration not stated)
inactive: COLO 205 > 100 µM | IGROV-1 > 100 µM | HL-60 > 100 µM | KM12 > 100 µM | PC-3 > 100 µM | HCT-116 > 100 µM | SW-620 > 100 µM | K562 > 100 µM | SK-OV-3 > 100 µM | TK-10 > 100 µM | BT-549 > 100 µM | Hs-578T > 100 µM | ACHN > 100 µM | SF-268 > 100 µM | Malme-3M > 100 µM

CC1=CCCC(C)(O)C2CC(CCC3(C)OC3CC1)C(C)C(=O)O2 (configuration not stated)
inactive: COLO 205 > 100 µM | IGROV-1 > 100 µM | HL-60 > 100 µM | KM12 > 100 µM | PC-3 > 100 µM | HCT-116 > 100 µM | SW-620 > 100 µM | K562 > 100 µM | SK-OV-3 > 100 µM | TK-10 > 100 µM | BT-549 > 100 µM | Hs-578T > 100 µM | ACHN > 100 µM | OVCAR-4 > 100 µM | SF-268 > 100 µM | Malme-3M > 100 µM | OVCAR-5 > 100 µM | HOP-92 > 10 µM

O=C(CSCC(=O)N/N=C/c1ccc2c(c1)OCO2)N/N=C/c1ccc2c(c1)OCO2
inactive: IGROV-1 > 100 µM | HL-60 58.9 µM | KM12 > 100 µM | PC-3 40.6 µM | HCT-116 85.7 µM | SW-620 > 100 µM | K562 38.3 µM | SK-OV-3 > 100 µM | TK-10 > 100 µM | BT-549 > 100 µM | Hs-578T > 100 µM | ACHN > 100 µM | OVCAR-4 > 100 µM | SF-268 > 100 µM | Malme-3M 49.2 µM | OVCAR-5 > 100 µM | HOP-92 > 100 µM

O=S(=O)(O)C(Cc1nc2ccccc2[nH]1)S(=O)(=O)OCCC1S(=O)(=O)OCCOS1(=O)=O (configuration not stated)
inactive: COLO 205 > 100 µM | IGROV-1 > 100 µM | HL-60 > 100 µM | KM12 > 100 µM | PC-3 > 100 µM | HCT-116 > 100 µM | SW-620 > 100 µM | K562 > 100 µM | SK-OV-3 > 100 µM | TK-10 > 100 µM | BT-549 > 100 µM | Hs-578T > 100 µM | ACHN > 100 µM | OVCAR-4 > 100 µM | SF-268 > 100 µM | Malme-3M > 100 µM | OVCAR-5 > 100 µM | HOP-92 > 100 µM

Cc1nnc2sc(NN)nn12
inactive: COLO 205 > 100 µM | IGROV-1 > 100 µM | KM12 > 100 µM | PC-3 > 100 µM | HCT-116 > 100 µM | SW-620 > 100 µM | K562 > 100 µM | SK-OV-3 > 100 µM | TK-10 > 100 µM | BT-549 > 100 µM | Hs-578T > 100 µM | ACHN > 100 µM | OVCAR-4 > 100 µM | SF-268 > 100 µM | Malme-3M > 100 µM | OVCAR-5 > 100 µM

CCC1(CC)C(=O)N(C(=O)c2cc(OC)c(OC)c(OC)c2)N(C(=O)c2cc(OC)c(OC)c(OC)c2)C1=O
inactive: COLO 205 > 50 µM | IGROV-1 > 50 µM | HL-60 28.5 µM | KM12 > 50 µM | PC-3 > 50 µM | HCT-116 > 50 µM | SW-620 > 50 µM | K562 > 50 µM | SK-OV-3 > 50 µM | TK-10 > 50 µM | BT-549 > 50 µM | Hs-578T > 50 µM | ACHN > 50 µM | OVCAR-4 > 50 µM | SF-268 > 50 µM | Malme-3M > 50 µM | OVCAR-5 > 50 µM

c1ccc(-c2cc(-c3cc(-c4ccccc4)[nH]n3)[nH]n2)cc1
inactive: COLO 205 > 100 µM | IGROV-1 > 100 µM | KM12 > 100 µM | PC-3 > 100 µM | HCT-116 > 100 µM | K562 > 100 µM | SK-OV-3 > 100 µM | TK-10 > 100 µM | BT-549 > 100 µM | SR > 100 µM | Hs-578T > 100 µM | ACHN > 100 µM | OVCAR-4 > 100 µM | SF-268 > 100 µM | Malme-3M > 100 µM | OVCAR-5 > 100 µM

O=C(O)CC(Cc1ccccc1)C(=O)O (configuration not stated)
inactive: COLO 205 > 100 µM | IGROV-1 > 100 µM | KM12 > 100 µM | PC-3 > 100 µM | HCT-116 > 100 µM | SW-620 > 100 µM | K562 > 100 µM | SK-OV-3 > 100 µM | TK-10 > 100 µM | BT-549 > 100 µM | Hs-578T 50.5 µM | ACHN > 100 µM | OVCAR-4 > 100 µM | SF-268 > 100 µM | Malme-3M > 100 µM | OVCAR-5 > 100 µM

Cc1cc(S(=O)(=O)O)ccc1/N=N/c1c(O)ccc2ccccc12
inactive: COLO 205 > 100 µM | IGROV-1 > 100 µM | HL-60 > 100 µM | KM12 > 100 µM | PC-3 > 100 µM | HCT-116 > 100 µM | SW-620 > 100 µM | K562 > 100 µM | SK-OV-3 > 100 µM | TK-10 > 100 µM | BT-549 > 100 µM | Hs-578T > 100 µM | ACHN > 100 µM | OVCAR-4 > 100 µM | SF-268 > 100 µM | Malme-3M > 100 µM | OVCAR-5 > 100 µM | HOP-92 > 100 µM

Cc1ccc(/C=N/NC2=NCCN2)s1
inactive: COLO 205 > 100 µM | IGROV-1 > 100 µM | HL-60 > 100 µM | KM12 > 100 µM | PC-3 > 100 µM | HCT-116 > 100 µM | SW-620 > 100 µM | K562 41 µM | SK-OV-3 > 100 µM | TK-10 > 100 µM | BT-549 23.3 µM | Hs-578T > 100 µM | ACHN > 100 µM | OVCAR-4 > 100 µM | SF-268 > 100 µM | Malme-3M > 100 µM | OVCAR-5 > 100 µM | HOP-92 > 100 µM

CC(=O)[C@H]1[C@H](O)C[C@@]2(C)[C@@H]3CCc4cc(O)c(OC5OC(CO)C(O)C(O)C5O)cc4C3(C)C(=O)C[C@]12C (some centres not stated)
inactive: COLO 205 > 100 µM | IGROV-1 > 100 µM | HL-60 > 100 µM | KM12 > 100 µM | PC-3 > 100 µM | HCT-116 > 100 µM | SW-620 > 100 µM | K562 > 100 µM | SK-OV-3 > 100 µM | TK-10 > 100 µM | BT-549 > 100 µM | SR > 100 µM | ACHN > 100 µM | OVCAR-4 > 100 µM | SF-268 > 100 µM | Malme-3M > 100 µM | OVCAR-5 > 100 µM | HOP-92 > 100 µM
